Here are results for 22 compounds from US4659717A, “Dihydropyridines useful in the treatment of angina and stroke” (Eli Lilly and Company, priority 1985, dated 1987).

The assay has as its system Dog Coronary Artery. Kind of assay: Dog coronary artery test: relaxation of KCl-contracted coronary artery rings. The following applies: coronary artery rings contracted with 50 mM KCl, 37° C., IC50 = 50% relaxation, mean values, probit analysis; for IC50: Canis lupus familiaris. Format: cell-based. Here is the method:
Mongrel dogs of either sex and weighing 15 to 30 kg were anesthetized with pentobarbital (35 mg/kg). Each heart was quickly removed through a right thoracotomy and placed in Kreb's bicarbonate solution of the following composition (mM/L): NaCl, 118.2; KCl, 4.6; CaCl2.2H2 O, 1.6; KH2 PO4, 1.2; MgSO4.7H2 O, 1.2; NaHCO3, 24.8; and dextrose, 10.0. The medium was kept at room temperature and saturated with 95% O2 /5% CO2. The left anterior descending and circumflex coronary arteries were isolated and used either immediately or stored overnight at 5° C. Arteries were cut into rings approximately 2 to 3 mm wide, placed on 2 L-shaped hooks and mounted in a 10 ml organ bath by attaching one hook to a stationary glass rod and the other hook to a force-displacement transducer. Tissue medium consisted of Kreb's bicarbonate solution maintained at 37° C. and bubbled with 95 % O2 /5% CO2. Artery rings were equilibrated for 1-2 hours under a resting tension of 3 g. Tissue medium was then changed to one containing 50 mM KCl and 72.8 mM NaCl but otherwise identical to Kreb's bicarbonate solution. After tissues achieved a steady state contractile tension (1-2 hours) a given test agent was added to each bath and concentration-response curves determined. […] At the end of the concentration-response curve, tissue medium was changed to one identical to the 50 mM KCl buffer but containing 2.5 mM EGTA and no CaCl2.2H2 O to obtain complete relaxation of the tissue. Percent relaxation was then determined for each concentration and values producing 50% relaxation (IC50) were estimated using a probit analysis.

SMILES strings stand for the structures.

For orientation: IC50 means the concentration at which inhibition is half-maximal. On to `CCOC(=O)C1=C(C)NC(C)=C(C(=O)OCC)C1c1csc2ncccc12` [Example 13, 1,4-Dihydro-2,6-dimethyl-4-thieno[2,3-b]pyridin-3-yl-3,5-pyridinedicarboxylic acid, diethyl ester], for which the IC50 is 871 nM.
On the same count and under the same terms, the same measure for `COCCOC(=O)C1=C(C)NC(C)=C(C(=O)OCCOC)C1c1csc2ccncc12` [Example 8, 1,4-Dihydro-2,6-dimethyl-4-thieno[3,2-c]pyridin-3-yl-3,5-pyridinedicarboxylic acid, bis(2-methoxyethyl)ester]: 501 nM.
As to `CCOC(=O)C1=C(C)NC(C)=C(C(=O)OCC)C1c1nccc2ccsc12` [Example 54, 1,4-Dihydro-2,6-dimethyl-4-thieno[2,3-c]pyridin-7-yl-3,5-pyridinedicarboxylic acid, diethyl ester], the “-log IC50” value is 7.1.
`CCOC(=O)C1=C(C)NC(C)=C(C(=O)OC)C1c1csc2ccncc12` (stereo not shown) [Example 33, 1,4-Dihydro-2,6-dimethyl-4-thieno[3,2-c]pyridin-3-yl-3,5-pyridinedicarboxylic acid, ethyl methyl ester] gave an IC50 of 30.2 nM.
The same measure, in the same setting: the same measure for `COC(=O)C1=C(C)NC(C)=C(C(=O)OCCC#N)C1c1csc2ccncc12` (stereo not shown) [Example 34, 1,4-Dihydro-2,6-dimethyl-4-thieno[3,2-c]pyridin-3-yl-3,5-pyridinedicarboxylic acid, 2-cyanoethyl methyl ester]: 316 nM; for `CCOC(=O)C1=C(C)NC(C)=C(C(=O)OCC)C1c1cccc2sccc12` [Example 55, 4-(Benzo[b]thien-4-yl)-1,4-dihydro-2,6-dimethyl-3,5-pyridinedicarboxylic a cid, diethyl ester]: 151 nM.
Still for that read-out and setting: the same measure for `CCOC(=O)C1=C(C)NC(C)=C(C(=O)OCC)C1c1csc2cc(N)ccc12` [Example 29, 4-(6-Aminobenzo[b]thien-3-yl)-1,4-dihydro-2,6-dimethyl-3,5-pyridinecarboxylic acid, diethyl ester]: 1350 nM; for `CCOC(=O)C1=C(C)NC(C)=C(C(=O)OCC)C1c1csc2ccccc12` [Example 3, 4-Benzo[b]thien-3-yl-1,4-dihydro-2,6-dimethyl-3,5-pyridinedicarboxylic acid, diethyl ester]: 79.4 nM.
On the same count and under the same terms, under `CCOC(=O)C1=C(C)NC(C)=C(C(=O)OCCN(C)Cc2ccccc2)C1c1csc2ccccc12` (stereo not shown) [Example 18, 4-Benzo[b]thien-3-yl-1,4-dihydro-2,6-dimethyl-3,5-pyridinedicarboxylic acid, 3-ethyl 5-(2-[methyl(phenylmethyl)amino]ethyl)ester] stands 3470 nM; under `COC(=O)C1=C(C)NC(C)=C(C(=O)OCC2CC2)C1c1csc2cccnc12` (stereo not shown) [Example 46, 1,4-Dihydro-2,6-dimethyl-4-thieno[3,2-b]pyridin-3-yl-3,5-pyridinedicarboxylic acid, cyclopropylmethyl methyl ester], 83.2 nM.
Compound `CCCCOC(=O)C1=C(C)NC(C)=C(C(=O)OCCCC)C1c1csc2ccncc12` [Example 53, 1,4-Dihydro-2,6-dimethyl-4-thieno[3,2-c]pyridin-3-yl-3,5-pyridinedicarboxylic acid, dibutyl ester] showed an IC50 of 1070 nM.
On the same count and under the same terms, the same measure for `CCOC(=O)C1=C(C)NC(C)=C(C(=O)OCC)C1c1csc2ccc(Br)cc12` [Example 22, 4-(5-Bromobenzo[b]thien-3-yl)-1,4-dihydro-2,6-dimethyl-3,5-pyridinedicarboxlic acid, diethyl ester]: 39800 nM; for `COC(=O)C1=C(C)NC(C)=C(C(=O)OC(C)(C)C)C1c1csc2ccncc12` (stereo not shown) [Example 45, 1,4-Dihydro-2,6-dimethyl-4-thieno[3,2-c]pyridin-3-yl-3,5-pyridinedicarboxylic acid, methyl 1,1-dimethylethyl ester]: 646 nM; for `COC(=O)C1=C(C)NC(C)=C(C(=O)OCC2CC2)C1c1csc2cnccc12` (stereo not shown) [Example 44, 1,4-Dihydro-2,6-dimethyl-4-thieno[2,3-c]pyridin-3-yl-3,5-pyridinedicarboxylic acid, cyclopropylmethyl methyl ester]: 70.8 nM.
On the same count and under the same terms, the same measure for `CCCOC(=O)C1=C(C)NC(C)=C(C(=O)OCCC)C1c1csc2ccncc12` [Example 10, 1,4-Dihydro-2,6-dimethyl-4-thieno[3,2-c]pyridin-3-yl-3,5-pyridinedicarboxylic acid, dipropyl ester]: 251 nM; for `CCOC(=O)C1=C(C)NC(C)=C(C(=O)OCC)C1c1csc2ccc([N+](=O)[O-])cc12` [Example 26, 1,4-Dihydro-2,6-dimethyl-4-(5-nitrobenzo[b]thien-3-yl)-3,5-pyridinedicarboxylic acid, diethyl ester]: 229 nM.
`CCOC(=O)C1=C(C)NC(C)=C(C(=O)OCC)C1c1csc2cnccc12` [Example 12, 1,4-Dihydro-2,6-dimethyl-4-thieno[2,3-c]pyridin-3-yl-3,5-pyridinedicarboxylic acid, diethyl ester]: the IC50 is 40.7 nM. This IC50 is about 5.6-fold lower than that of the compound before.
On the same count and under the same terms, the same measure for `CCOC(=O)C1=C(C)NC(C)=C(C(=O)OCC)C1c1nccc2ccsc12` [Example 24, 1,4-Dihydro-2,6-dimethyl-4-thieno[2,3-c]pyridin-7-yl-3,5-pyridinedicarboxylic acid, diethyl ester]: 83.2 nM; for `CCOC(=O)C1=C(C)NC(C)=C(C(=O)OCC)C1c1csc2cc([N+](=O)[O-])ccc12` [Example 27, 1,4-Dihydro-2,6-dimethyl-4-(6-nitrobenzo[b]thien-3-yl)-3,5-pyridinedicarboxylic acid, diethyl ester]: 204 nM; for `CCOC(=O)C1=C(C)NC(C)=C(C(=O)OC(C)C)C1c1csc2ccncc12` (stereo not shown) [Example 17, 1,4-Dihydro-2,6-dimethyl-4-thieno[3,2-c]pyridin-3-yl-3,5-pyridinedicarboxylic acid, 3-ethyl 5-isopropyl ester]: 83.2 nM.
Still for that read-out and setting: the same measure for `CCOC(=O)C1=C(C)NC(C)=C(C(=O)OCC)C1c1csc2c(C)nccc12` [Example 14, 1,4-Dihydro-2,6-dimethyl-4-(7-methylthieno[2,3-c]pyridin-3-yl)-3,5-pyridinedicarboxylic acid, diethyl ester]: 3160 nM.
Take `CCOC(=O)C1=C(C)NC(C)=C(C(=O)OCC)C1c1csc2ccncc12` [Example 5, 1,4-Dihydro-2,6-dimethyl-4-thieno[3,2-c]pyridin-3-yl-3,5-pyridinedicarboxylic acid, diethyl ester]: the “-log IC50” value stood at 7.55.
